Data reported in patent publication US20120195911A1, “Method of treatment of cancer patients” (priority 2011, published 2012).

Assays:
[1] = test system: adenocarcinomas with various localizations; test: Comparative study, all cancer patients of the experimental group together; format: in vivo, human; settings: for long-term remission of the illness: fewer than 3 courses of seven days
Experimental: All the patients belonged to the second clinical group with stage 3 illness. In the capacity of a control group (Control), the following were used: 10 cervical cancer patients, 12 stomach cancer patients, and 10 mammary gland cancer patients from clinical group 2 with stage 3 illnesses. In the control group the patients were treated without the use of Valacyclovir and Acyclovir. As may be seen in the table, the remission periods due to the use of Valacyclovir (Acyclovir) before standard methods of treatment or in combination with chemotherapy doubled for mammary gland cancer and quintupled for stomach cancer. In the majority of the patients (more than 72%), metastasis was not seen for the entire period of observation (3 years). […] The use of the antiviral drug is not useful for a longer period, as the remission period begins for the patient and the drug is ineffective.

[2] = test system: EBV-associated nasopharyngeal carcinomas; settings: nasopharyngeal carcinomas in athymus mice; cited from earlier work
[3] = test system: neuroblastoma cells infected by HCMV; settings: long-term cultured HCMV-infected neuroblastoma cells resistant to cysplatin and etoposide; virus reproduction blocked; cited from earlier work
Mammary Gland Cancer = test: Comparative study of treatment with Valacyclovir before standard treatment, mammary gland cancer patients; format: in vivo, human; settings: Valacyclovir (Acyclovir) before standard treatment or with chemotherapy
Experimental: (§1) All the patients belonged to the second clinical group with stage 3 illness. In the capacity of a control group (Control), the following were used: 10 cervical cancer patients, 12 stomach cancer patients, and 10 mammary gland cancer patients from clinical group 2 with stage 3 illnesses. In the control group the patients were treated without the use of Valacyclovir and Acyclovir. As may be seen in the table, the remission periods due to the use of Valacyclovir (Acyclovir) before standard methods of treatment or in combination with chemotherapy doubled for mammary gland cancer and quintupled for stomach cancer. In the majority of the patients (more than 72%), metastasis was not seen for the entire period of observation (3 years).

T4N1M0 cervical cancer = test: Case report: Valacyclovir before radiation therapy for cervical cancer; format: in vivo, human; settings: Patient S.
Experimental: (§2) […] CMV was found with the FEM in 80% of lymphocytes before treatment with Valacyclovir. The patient then underwent Valacyclovir therapy. 2 g of medication was administered 4 times a day for 7 days in a row in three courses in intervals of seven days each. Then the patient underwent a standard schedule of radiological treatment. Chemotherapy was not used. […] Laboratory study of the patient's lymphocytes every year found CMV antigens, but only in 20-30% of the cells. The patient underwent two more courses of treatment with Valacyclovir according to the schedule above once per year.

EBV = EBV antigens in patient's lymphocytes (fluorescing antibody method); format: in vivo, human; settings: Patient (stomach cancer), combination with immunoglobulins and Laferobion; 80% before treatment
Experimental: (§3) EBV antigens were found 80% of the lymphocytes and CMV was found in 90% of the lymphocytes using the FAM in before treatment with Valacyclovir. The patient then underwent combination therapy with antiviral drugs: immunoglobulin to treat the EBV at a dosage of 13 ml of a 10% solution immediately (7 ml per injection) intravenously once a week three times; immunoglobulin to treat the CMV at a dosage of 13 ml of a 10% solution immediately (7 ml per injection) intramuscularly once a week three times; two 1 g tablets of Valacyclovir 3 times per day in 3 courses of 7 days each; Laferobion 3 million IU once per day daily for seven days in a row. Then a subtotal resection was performed on the patient's stomach. Postoperative chemotherapy was not used. […] Laboratory study of the patient's lymphocytes every year found CMV and EBV antigens in 10-15% of the cells.

Stomach Cancer = test: Comparative study of treatment with Valacyclovir before standard treatment, stomach cancer patients; format: in vivo, human; settings: Valacyclovir (Acyclovir) before standard treatment or with chemotherapy
Experimental: as §1

T4N1M0 prostate cancer = test: Case report: Valacyclovir with chemotherapy in prostate cancer; format: in vivo, human; settings: Patient D., 2 g orally 4 times a day, 7 days, three courses, in parallel with CVPM chemotherapy; three-year period
Experimental: (§4) […] Valacyclovir was administered as treatment. CMV antigens were found in 95% of the patient's lymphocytes before treatment with Valacyclovir. 2 g of medication was administered orally 4 times a day for 7 days in a row in three courses in intervals of seven days each in parallel with CVPM chemotherapy. Other treatment methods were not used. […] Laboratory study of the patient's lymphocytes every year found CMV antigens in 10-15% of the cells. The patient underwent two more courses of treatment with Valacyclovir in combination with chemotherapy once per year.

[4] = test system: T2N1M0 mammary gland cancer; test: Case report: preoperational Valacyclovir in mammary gland cancer; format: in vivo, human; settings: Patient L., 1 g 3 times a day, 7 days, three courses, then radical mastectomy; three-year period
Experimental: (§5) […] Before treatment with Acyclovir, the antigen to cytomegalovirus (CMV) was found in 85% of the patient's lymphocytes through the fluorescing antibody method (FAM) and therapy was administered with the use of Valacyclovir. 1 g of medication was given 3 times a day for 7 days in a row in three courses in intervals of seven days each. Then the patient underwent a radical mastectomy. Postoperative chemotherapy was not used. […] CMV antigens were not found in the lymphocytes.

T3N1M0 stomach cancer = test: Case reports: preoperative Valacyclovir in stomach cancer; format: in vivo, human; settings: then subtotal resection
Experimental: (§6) […] CMV antigens were found using the FAM in 90% of the lymphocytes before treatment with Valacyclovir. The patient then underwent Valacyclovir therapy. 2 g of medication was administered 4 times a day for 7 days in a row in three courses in intervals of seven days each. Then a subtotal resection was performed on the patient's stomach. Postoperative chemotherapy was not used. […] Laboratory study of the patient's lymphocytes every year found CMV antigens in 10-15% of the cells. At the end of the first and second year, the patient received another course of Valacyclovir.
EBV antigens were found 80% of the lymphocytes and CMV was found in 90% of the lymphocytes using the FAM in before treatment with Valacyclovir. The patient then underwent combination therapy with antiviral drugs: immunoglobulin to treat the EBV at a dosage of 13 ml of a 10% solution immediately (7 ml per injection) intravenously once a week three times; immunoglobulin to treat the CMV at a dosage of 13 ml of a 10% solution immediately (7 ml per injection) intramuscularly once a week three times; two 1 g tablets of Valacyclovir 3 times per day in 3 courses of 7 days each; Laferobion 3 million IU once per day daily for seven days in a row. Then a subtotal resection was performed on the patient's stomach. Postoperative chemotherapy was not used. […]

cytomegalovirus (CMV) = test: CMV antigens in patient's lymphocytes (fluorescing antibody method / indirect immunofluorescence reaction); format: in vivo, human
Experimental: as §5, §6, §2, §4, §3

Nc1nc2c(ncn2COCCO)c(=O)[nH]1 [Acyclovir]
long-term remission of the illness ([1]; less than 0.5 g 2 times a day in injected form): does not provide long-term remission

Nc1ccn(C[C@@H](CO)OCP(=O)(O)O)c(=O)n1 [Cidofovir, (S)-1-(3-hydroxy-2-phpsphonyl-methoxypropyl) cytosine]
apoptosis in EBV-transformed epithelial cells [2]: causes a quick induction of apoptosis

Nc1nc(O)c2ncn(COC(CO)CO)c2n1 [Ganciclovir]
sensitivity to the action of antitumor drugs [3]: fully restored

CC(C)[C@H](N)C(=O)OCCOCn1cnc2c(=O)[nH]c(N)nc21 [Valacyclovir]
change of remission period versus control (Mammary Gland Cancer): doubled | relapses (T4N1M0 cervical cancer; 2 g 4 times a day, 7 days, three courses, then radiological treatment, three-year period): No relapses were seen | metastasis (T4N1M0 cervical cancer; during the observation time): no metastasis | EBV antigens in lymphocytes after treatment (EBV): 10-15% | change of remission period versus control (Stomach Cancer): quintupled | relapses (T4N1M0 prostate cancer): No relapses were seen | relapses [4]: No relapses were seen | relapses (T3N1M0 stomach cancer; Patient B., 2 g 4 times a day, 7 days, three courses, three-year period): No relapses were seen | relapses (T3N1M0 stomach cancer; Patient, Valacyclovir combined with EBV and CMV immunoglobulins and Laferobion, four-year period): No relapses were seen | patients in whom metastasis was not seen for the entire period of observation ([1]; experimental group, observation 3 years): more than 72% | long-term remission of the illness ([1]; less than 1 g 3 times a day perorally): does not provide long-term remission | CMV antigens in lymphocytes after treatment (cytomegalovirus (CMV); Patient (stomach cancer), combination with immunoglobulins and Laferobion, 90% before treatment): 10-15% | CMV antigens in lymphocytes after treatment (cytomegalovirus (CMV); Patient B. (stomach cancer), yearly study, 90% of lymphocytes before treatment): 10-15% | CMV antigens in lymphocytes after treatment (cytomegalovirus (CMV); Patient D. (prostate cancer), yearly study, 95% of lymphocytes before treatment): 10-15% | CMV antigens in lymphocytes after treatment (cytomegalovirus (CMV); Patient L., yearly checkup by IIR, 85% of lymphocytes before treatment): not found | CMV antigens in lymphocytes after treatment (cytomegalovirus (CMV); Patient S. (cervical cancer), yearly study, 80% of lymphocytes before treatment): 20-30%
